Source: patent US11147272B2, “Pyridone compounds and agricultural and horticultural fungicides comprising the same as active ingredients” (MITSUI CHEMICALS AGRO, INC., priority 2017, dated 2021)

Key:
[1] = system: Blumeria graminis f. sp. hordei; test: Test Example D: Powdery mildew on barley; conditions: for Test D control value class: class of control value
Plasmopara viticola = test: Test Example G: Downy mildew on vine; conditions: for Test G control value: 7 to 10 days after inoculation; for Test G control value class: Downy mildew on vine (Neomuscat), 2.5 ml/pot, assessed 7 to 10 days after inoculation
[2] = system: Colletotrichum orbiculare; test: Test Example H: Anthracnose on cucumber; conditions: for Test H control value: 6 to 10 days after inoculation; for Test H control value class: Anthracnose on cucumber (Sagami Hanjiro), 2.5 ml/pot, assessed 6 to 10 days after inoculation
Alternaia brassicicola = test: Test Example C: Alternaria sooty spot on cabbage; type: in vivo; conditions: for Test C control value class: class of control value
Text: Seeds of a test plant (cabbage variety: Shikidori) were planted and cultivated until the cotyledons extended.
<Control Value> Control value=100{1−(n/3)}

Phytophthora infestans = test: whole plant or invertebrate; type: in vivo; conditions: for Test F control value class: class of control value
Magnaporthe grisea = test: whole plant or invertebrate; type: in vivo; conditions: for Test A control value class: class of control value
Puccinia recondita = test: Test Example E: Brown rust on wheat; type: in vivo; conditions: for Test E control value class: class of control value
Botrytis cinerea = test: Test Example B: Gray mold on tomato; conditions: for Test B control value class: class of control value
[3] = Powdery mildew on barley, control value class
[4] = Downy mildew on vine, 250 ppm spray
[5] = Anthracnose on cucumber, 250 ppm spray
[6] = Alternaria sooty spot on cabbage, control value class
[7] = Late blight on tomato, control value class
[8] = Blast on rice, control value class
[9] = Brown rust on wheat, control value class
[10] = Gray mold on tomato, control value class
[11] = Alternaria sooty spot on cabbage
[12] = 250 ppm drug solution sprayed on test plant
[13] = 250 ppm drug solution sprayed (2.5 ml/pot), grape Neomuscat
[14] = 250 ppm drug solution sprayed (2.5 ml/pot), cucumber Sagami Hanjiro

SMILES	Test D control value [1, 3]	Test G control value (Plasmopara viticola; [4])	Test H control value [2, 5]	Test C control value (Alternaia brassicicola; [6])	Test F control value (Phytophthora infestans; [7])	Test A control value (Magnaporthe grisea; [8])	Test E control value (Puccinia recondita; [9])	Test B control value (Botrytis cinerea; [10])	Test D control value class ([1]; Powdery mildew on barley)	Test G control value class (Plasmopara viticola; 250 ppm spray)	Test H control value class ([2]; 250 ppm spray)	Test C control value class (Alternaia brassicicola; [11])	Test F control value class (Phytophthora infestans; Late blight on tomato)	Test A control value class (Magnaporthe grisea; Blast on rice)	Test E control value class (Puccinia recondita; Brown rust on wheat)	Test B control value class (Botrytis cinerea; Gray mold on tomato)	further results
CCCCc1cc(Cl)c(=O)n(CC)c1-c1ccc(F)cc1Cl [compound 206]	H (more than 50% control value)	H (more than 50% control value)	H (more than 50% control value)	H (more than 50% control value)	H (more than 50% control value)	H (more than 50% control value)	H (more than 50% control value)	H (more than 50% control value)	–	–	–	–	–	–	–	–	–
CCn1c(-c2c(F)cc(F)cc2F)c(C(Cl)C(C)(C)C)cc(Cl)c1=O (racemic) [compound 172]	–	–	–	–	–	–	–	–	H (more than 50% control value)	H (more than 50% control value)	H (more than 50% control value)	H (more than 50% control value)	H (more than 50% control value)	H (more than 50% control value)	H (more than 50% control value)	H (more than 50% control value)	–
CCC(OC)c1cc(Cl)c(=O)n(CC)c1-c1c(F)cc(OC)cc1F (centres unmarked) [compound 48]	–	–	–	–	–	–	–	–	H (more than 50% control value)	H (more than 50% control value)	H (more than 50% control value)	H (more than 50% control value)	L (50% or less control value)	H (more than 50% control value)	H (more than 50% control value)	H (more than 50% control value)	–
CCn1c(-c2c(F)cccc2F)c(C(C)O)cc(Cl)c1=O (centres unmarked) [compound 17]	–	–	–	–	–	–	–	–	L (50% or less control value)	H (more than 50% control value)	H (more than 50% control value)	H (more than 50% control value)	H (more than 50% control value)	L (50% or less control value)	H (more than 50% control value)	H (more than 50% control value)	–
CCn1c(-c2ccc(F)cc2C)c(CC(C)C)ccc1=O [compound 202]	H (more than 50% control value)	H (more than 50% control value)	L (50% or less control value)	L (50% or less control value)	L (50% or less control value)	H (more than 50% control value)	H (more than 50% control value)	H (more than 50% control value)	–	–	–	–	–	–	–	–	–
CCC(OC)c1cc(Cl)c(=O)n(CC)c1-c1c(F)cc(F)cc1F (centres unmarked) [compound 47]	–	–	–	–	–	–	–	–	H (more than 50% control value)	H (more than 50% control value)	H (more than 50% control value)	H (more than 50% control value)	L (50% or less control value)	H (more than 50% control value)	H (more than 50% control value)	H (more than 50% control value)	–
CCn1c(-c2c(F)cc(OC)cc2F)c(C(C)(F)C(C)C)cc(Cl)c1=O (racemic) [compound 167]	–	–	–	–	–	–	–	–	H (more than 50% control value)	H (more than 50% control value)	H (more than 50% control value)	H (more than 50% control value)	H (more than 50% control value)	H (more than 50% control value)	H (more than 50% control value)	H (more than 50% control value)	–
CCn1c(-c2ccccc2Cl)c(CC(C)C)cc(Br)c1=O [compound 264]	H (more than 50% control value)	L (50% or less control value)	H (more than 50% control value)	H (more than 50% control value)	L (50% or less control value)	L (50% or less control value)	H (more than 50% control value)	H (more than 50% control value)	–	–	–	–	–	–	–	–	–
CCn1c(-c2ccc(F)cc2)c(C(C)(F)C(C)C)cc(Cl)c1=O (centres unmarked) [compound 217]	H (more than 50% control value)	L (50% or less control value)	H (more than 50% control value)	H (more than 50% control value)	L (50% or less control value)	H (more than 50% control value)	H (more than 50% control value)	H (more than 50% control value)	–	–	–	–	–	–	–	–	–
CCn1c(-c2c(F)cc(F)cc2F)c(C)cc(I)c1=O [compound 379]	–	–	–	–	–	–	–	–	–	–	–	–	–	–	–	–	Test D control value [1, 12]: H (more than 50% control value); Test G control value (Plasmopara viticola; [13]): L (50% or less control value); Test H control value [2, 14]: H (more than 50% control value); Test C control value (Alternaia brassicicola; [12]): H (more than 50% control value); Test F control value (Phytophthora infestans; [12]): L (50% or less control value); Test A control value (Magnaporthe grisea; [12]): L (50% or less control value); Test E control value (Puccinia recondita; [12]): H (more than 50% control value); Test B control value (Botrytis cinerea; [12]): H (more than 50% control value)
CCn1c(-c2ccc(F)cc2C)c(CC(C)C)cc(Cl)c1=O [compound 203]	H (more than 50% control value)	H (more than 50% control value)	H (more than 50% control value)	H (more than 50% control value)	H (more than 50% control value)	H (more than 50% control value)	H (more than 50% control value)	H (more than 50% control value)	–	–	–	–	–	–	–	–	–
CCn1c(-c2ccc(Br)cc2F)c(CC(C)C)cc(Br)c1=O [compound 142]	–	–	–	–	–	–	–	–	H (more than 50% control value)	H (more than 50% control value)	H (more than 50% control value)	H (more than 50% control value)	L (50% or less control value)	H (more than 50% control value)	H (more than 50% control value)	H (more than 50% control value)	–
CC(C)C(C)(O)c1cc(Br)c(=O)n(C)c1-c1c(F)cc(F)cc1F (centres unmarked) [compound 423]	–	–	–	–	–	–	–	–	–	–	–	–	–	–	–	–	Test D control value [1, 12]: H (more than 50% control value); Test G control value (Plasmopara viticola; [13]): H (more than 50% control value); Test H control value [2, 14]: H (more than 50% control value); Test C control value (Alternaia brassicicola; [12]): H (more than 50% control value); Test F control value (Phytophthora infestans; [12]): H (more than 50% control value); Test A control value (Magnaporthe grisea; [12]): H (more than 50% control value); Test E control value (Puccinia recondita; [12]): H (more than 50% control value); Test B control value (Botrytis cinerea; [12]): H (more than 50% control value)
